Data: patent publication US9707200B2, “Metabolism-improving agent comprising rare fatty acid” (KYOTO UNIVERSITY, priority 2012, dated 2017)

Columns and labels:
PPARα = molecular target: T1, PPARα (Homo sapiens, UniProt Q07869); experiment: PPARα ligand activity, GAL4-PPARα reporter luciferase assay in CV-1 cells; assay type: cell-based; details: 24 hr incubation, KetoA and HYA each at 30 μM, other fatty acids by a similar method
T1 construct: expressed in transfected cells; host or cells: CV-1 (African green monkey kidney)
T1 sequence (Q07869 239-466 limits assumed): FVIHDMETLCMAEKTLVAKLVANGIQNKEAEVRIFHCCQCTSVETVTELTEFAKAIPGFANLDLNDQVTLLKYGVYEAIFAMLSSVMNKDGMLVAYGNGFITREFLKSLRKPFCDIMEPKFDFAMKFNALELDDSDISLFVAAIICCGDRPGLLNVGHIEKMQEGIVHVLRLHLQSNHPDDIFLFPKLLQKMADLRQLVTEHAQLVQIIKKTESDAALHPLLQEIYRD
Procedure: To evaluate the function of oxo fatty acid and the like, PPARα, γ-activating action was measured first. The measurement was performed in reference to Nobuyuki Takahashi et al., FEES Letters 514 (2002) p. 315-322, “Dual action of isoprenols from herbal medicines on both PPARgamma and PPARalpha in 3T3-L1 adipocytes and HepG2 hepatocytes.”, the section of Materials and Methods “Reporter plasmids and luciferase assays”. To be specific, a plasmid containing DNA encoding a fused protein of PPARα, γ ligand binding region and GAL4 DNA binding region (pM-hPPARα or pM-hPPARγ), a reporter plasmid containing GAL4 binding DNA sequence linked to luciferase (p4xUASg-tk-luc), and internal control (pRL-CMV) to standardize transfection efficiency were introduced into CV-1 cell derived from the kidney of African green monkey. The ligand described below was added to the cells and, after incubation for 24 hr, luciferase activity was measured. As a ligand, KetoA and HYA were each added at 30 μM.
The concentration of the sample was adjusted with ethanol. Ethanol was used as a negative control, […], and GW7647 (10 nM) and Troglitazone (5 μM) were used as […].

KKAy mouse = experiment: Effect in obesity or diabetes model mouse fed high-fat diet with added fatty acid; assay type: in vivo; details: for blood glucose level / body weight: vs control group; for body weight: 4 weeks
Procedure: (1) Using KKAy mouse as obesity or diabetes model mouse, the effect of KetoA, HYA was evaluated. KKAy mice (KKAy/TaJcl, male, 4-week-old, purchased from CLEA Japan, Inc. and individually bred) were preliminarily bred on a commercially available normal diet (ND) for 1 week, divided into 5 groups, and each group was bred on a high-fat diet (HFD) as a basic feed and given a non-addition feed (control group), or a feed added with different amounts of KetoA and HYA for 4 weeks. The KetoA, HYA-added feed was prepared by adding KetoA, HYA to HFD such that the amount to be added was 0.05% (w/w) (0.05% group) or 0.1% (w/w) (0.1% group).
(2) The profile of the body weight and blood glucose level of the KKAy mouse was measured. After the start of the test feed breeding, the oxygen consumption level was measured on day 16-19, an oral glucose loading test was performed on day 24, and the rectal temperature was measured on day 26. The next day of the completion of experimental breeding, the KKAy mouse was dissected, and the organ weight and plasma neutral fat level were measured.

LXR = molecular target: T2, LXR (Homo sapiens, UniProt Q13133); experiment: Antagonizing action on LXR by luciferase assay; assay type: cell-based; details: for antagonizing action on LXR (relative luciferase activity): HepG2 cells, fatty acid + T0901317, 24 hr; for lipid synthesis suppressive action by the antagonizing action on LXR: overall finding from SREBP-1c, SREBP-1, SCD-1, FAS, ACC1, 2, triacylglycerol and LXR luciferase measurements in HepG2 cells
T2 construct: expressed in transfected cells; host or cells: HepG2 (human liver cancer-derived)
T2 sequence (Q13133 1-447): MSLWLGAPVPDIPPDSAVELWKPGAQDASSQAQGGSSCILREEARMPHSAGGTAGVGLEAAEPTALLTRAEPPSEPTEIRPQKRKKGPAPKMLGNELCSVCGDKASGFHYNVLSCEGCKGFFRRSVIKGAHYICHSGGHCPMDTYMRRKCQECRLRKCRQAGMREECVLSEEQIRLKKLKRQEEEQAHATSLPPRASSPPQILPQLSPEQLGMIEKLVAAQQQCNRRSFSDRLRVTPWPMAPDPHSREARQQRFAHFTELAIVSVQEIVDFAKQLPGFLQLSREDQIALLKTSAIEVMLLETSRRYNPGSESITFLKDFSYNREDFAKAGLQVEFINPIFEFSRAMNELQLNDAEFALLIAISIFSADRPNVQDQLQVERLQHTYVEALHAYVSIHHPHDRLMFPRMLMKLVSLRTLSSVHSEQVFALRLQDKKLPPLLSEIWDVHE
Procedure: In addition, the protein expression level of immature and mature SREBP-1c was measured. Cells treated as mentioned above were dispersed in buffer A (250 mM sucrose, 10 mM HEPES-KOH, 10 mM KCl, 1.5 mM MgCl2, 1 mM EDTA-Na, 1 mM EGTA-Na, pH 7.6) containing a protease inhibitor, passed 20 times through a 23 gauge injection needle, and centrifuged (1,000×g, 4° C., 5 min) to separate into supernatant 1 and precipitate 1. The precipitate 1 was re-dissolved in buffer B (20 mM HEPES-KOH, 0.42 M NaCl, 2.5% glycerol, 1.5 mM MgCl2, 1 mM EDTA-Na, 1 mM EGTA-Na, pH 7.6), and centrifuged (10^5×g, 4° C., 15 min). The obtained supernatant 2 was used as a nuclear fraction (including mature form). The supernatant 1 was further centrifuged (10^5×g, 4° C., 15 min), and the obtained precipitate 2 was dissolved in cell lysate (10 mM Tris-HCl, 100 mM NaCl, 1% SDS, 1 mM EDTA-Na, 1 mM EGTA-Na) and used as a membrane fraction (including immature form). Using these as samples, measurement was performed by Western blot method using anti-SREBP-1 polyclonal antibody (Santa Cruz). Using Dual luciferase system (Promega), antagonizing action on LXR was evaluated by luciferase assay. p3xIR1-tk-Luc, pCMX-hLXRa, pRL-CMX were introduced into HepG2 cell. After culture in a 0.1% BSA-containing serum-free medium containing various fatty acids and T0901317 for 24 hr, the luciferase activity was measured.

CCCCC/C=C\CC(=O)CCCCCCCCC(=O)O [KetoA, 10-oxo-cis-12-octadecenoic acid]
PPARα agonist activity (relative luciferase activity) (PPARα): strong PPARα and γ agonist activity | blood glucose level (KKAy mouse; 0.05% group, at 4 weeks of test diet): tendency toward suppression of blood glucose increase | intraperitoneal white fat weight (KKAy mouse; 0.1% group, after 4 weeks): significant decrease | plasma neutral fat level (KKAy mouse; 0.1% group, after 4 weeks): significant decrease | blood glucose level (KKAy mouse; 0.1% group, at 4 weeks of test diet): stronger, significant hypoglycemic action | body weight (KKAy mouse; HFD with 0.05% (w/w) added): body weight increase suppression tendency | body weight (KKAy mouse; HFD with 0.1% (w/w) added): significant suppression of body weight increase | oxygen consumption level (KKAy mouse; day 16-19, added-feed group vs control group): increase in the oxygen consumption level | rectal temperature (KKAy mouse; day 26, added-feed group vs control group): increase in the rectal temperature | antagonizing action on LXR (relative luciferase activity) (LXR): significantly suppress the action of T0901317 | lipid synthesis suppressive action by the antagonizing action on LXR (LXR): strong lipid synthesis suppressive action

CCCCC/C=C\CC(O)CCCCCCCCC(=O)O (stereo not drawn) [HYA, 10-hydroxy-cis-12-octadecenoic acid]
PPARα agonist activity (relative luciferase activity) (PPARα): PPARα agonist activity | body weight (KKAy mouse; HFD with 0.05% (w/w) added): significant suppression of body weight increase | blood glucose level (KKAy mouse; added-feed group, amount not specified): tendency toward suppression of blood glucose level increase | antagonizing action on LXR (relative luciferase activity) (LXR): significantly suppress the action of T0901317 | lipid synthesis suppressive action by the antagonizing action on LXR (LXR): strong lipid synthesis suppressive action
